Reference: ChEMBL document CHEMBL3638904, “Pyridine-2-derivatives as smoothened receptor modulators” (2015)

Target: Protein smoothened (Homo sapiens, UniProt Q99835)
Test: Radioligand Competition Binding Assay: For the binding competition assay, 100 μL of Assay Buffer was added to all the wells of a 96 well GF/B filter plate (Millipore MultiScreen-HTS-FB cat# MSFBN6B50) for 10 minutes to pre-wet the filter prior to evacuation of the buffer (8 inches Hg for 8 seconds). To the pre-wet wells is added: 20 μL of Assay Buffer, 10 μL diluted test agent, 20 μL of a tritiated Smo antagonist (15 nM stock solution), and 50 μL of membrane preparation (40 μg total protein per well). The plates are sealed and mixed at room temperature for 5 min, incubated at room temperature for 2 hours, then washed 5 times with 100 μL/each of wash buffer and vacuum dried for 8 seconds at 8 inches Hg. The plate is then dried for one hour in a 60° C. oven prior to the addition of 45 μL of Microscint 20 (Packard, #6013621) to each well and incubation at RT for 30 minutes to 1 hour. The plate is counted in a TopCount scintillation counter (Perkin Elmer).

Chain of Protein smoothened (Q99835 whole entry): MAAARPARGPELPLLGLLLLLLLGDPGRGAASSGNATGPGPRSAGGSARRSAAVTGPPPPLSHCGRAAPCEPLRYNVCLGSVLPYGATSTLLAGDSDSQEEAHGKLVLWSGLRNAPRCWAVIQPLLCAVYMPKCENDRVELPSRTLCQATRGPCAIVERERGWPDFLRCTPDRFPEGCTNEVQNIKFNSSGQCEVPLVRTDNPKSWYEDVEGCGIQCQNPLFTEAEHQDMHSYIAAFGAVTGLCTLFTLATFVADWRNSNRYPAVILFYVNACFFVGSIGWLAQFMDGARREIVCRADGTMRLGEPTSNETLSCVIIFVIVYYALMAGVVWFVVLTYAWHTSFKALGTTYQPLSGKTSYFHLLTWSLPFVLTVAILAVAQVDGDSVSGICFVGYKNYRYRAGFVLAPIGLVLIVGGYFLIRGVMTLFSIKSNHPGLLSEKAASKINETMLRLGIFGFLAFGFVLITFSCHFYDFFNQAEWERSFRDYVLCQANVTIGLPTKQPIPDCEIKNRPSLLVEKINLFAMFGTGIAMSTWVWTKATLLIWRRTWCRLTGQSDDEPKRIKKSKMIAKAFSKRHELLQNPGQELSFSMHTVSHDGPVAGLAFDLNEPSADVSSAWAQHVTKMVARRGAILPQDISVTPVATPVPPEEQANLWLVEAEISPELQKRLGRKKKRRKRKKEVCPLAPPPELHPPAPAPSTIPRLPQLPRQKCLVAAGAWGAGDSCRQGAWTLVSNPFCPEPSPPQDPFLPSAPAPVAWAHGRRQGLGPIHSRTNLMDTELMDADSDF

SMILES | IC50 [nM]
Cc1cccnc1-c1cc(N2CCN(c3ncc(Br)cn3)CC2)ncc1Cl | 40.3
O=C(CCO)NC1CCN(c2ccc(Cl)c(-c3ccccn3)n2)CC1 | 110
Cc1ccc(-c2nc(N3CCN(C(=O)CCS(C)(=O)=O)CC3)ccc2Cl)nc1 | 22.5
Cc1cc(F)cnc1-c1cc(N2CCN(C(=O)CCS(C)(=O)=O)CC2)ncc1Cl | 7.11

More lines, in order of falling IC50, values ahead:

IC50 [nM] | SMILES
92.2 | Cc1cccnc1-c1cc(N2[C@@H]3CC[C@H]2CN(C(=O)CC(C)(C)O)C3)ncc1Cl
16.5 | O=S(=O)(NC1CCN(c2ccc(Cl)c(-c3ccccn3)n2)CC1)C1CC1
